Measured values taken from PubChem BioAssay AID179 (DTP/NCI, 2004).
The source made the active and inactive calls.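 The calls were made as follows: active = compounds giving half or more protection of infected cells from virus-caused growth loss, again on retest; inactive = the rest.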

System: CEM cells HIV-1 protection, formazan growth assay
Test: NCI AIDS Antiviral Assay
Details: for IC50: measured here: growth of uninfected CEM cells
In short: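 Five concentrations of each compound were applied to infected and uninfected human CEM cells. Protection from HIV-1 was judged from growth measured with a soluble formazan assay.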

Structure (SMILES)	EC50	IC50	outcome
CC(C)=C1C2CCC1C1CSCC21 (configuration not stated)	> 115 µM	> 115 µM	
COc1ccc(/C=C/C(=O)O)cc1OC	> 1200 µM	> 1200 µM	
NC(CCC(=O)NC(CSSCCCCS(=O)O)C(=O)NCC(=O)O)C(=O)O (configuration not stated)			inactive
Cc1cc(C#N)c(Nc2ccc(F)cc2[N+](=O)[O-])s1	> 200 µM	> 200 µM	
CC(=O)OC1C=CC(OC(C)=O)C2C1[C@H]1C3C=CC=CC3[C@@H]2S1=O (some centres not stated)	> 200 µM	112 µM	
O=C1CCCCc2scc(C(=O)O)c2N1	> 1120 µM	> 1120 µM	
COC(=O)C1(F)C(=O)NC(=O)NC1OC (configuration not stated)	> 1120 µM	17.4 µM	
Clc1ccc(-c2c(C3=NCCCN3)nnn2-c2ccccc2)cc1	> 389 µM	> 389 µM	
CC1C(c2cc(C(C)(C)C)c(O)c(C(C)(C)C)c2)c2cc3c(cc2OC1N1CCOCC1)OCO3 (configuration not stated)	> 200 µM	> 200 µM	
CCOC(=O)/C(=C\c1ccccc1)C(=O)O	> 1120 µM	240 µM	
CC(=O)N1c2ccccc2Sc2cc(C(O)(C(F)(F)F)C(F)(F)F)ccc21	> 200 µM	13.5 µM	
CCCOc1cnc([C@H]2CCC3[C@@H]4CC=C5C[C@@H](O)CC[C@]5(C)C4CC[C@@]32C)s1 (some centres not stated)	> 60.3 µM	> 60.3 µM	
C=C(C)[C@@H]1CC[C@]2(CNC(=O)CC(C)(C)CC(=O)O)CC[C@]3(C)[C@H](CC[C@@H]4[C@@]5(C)CC[C@H](NC(=O)CC(C)(C)CC(=O)O)C(C)(C)[C@@H]5CC[C@]43C)[C@@H]12	> 200 µM	18.2 µM	
On1c(-c2ccccc2)c(-c2c(-c3ccccc3)n(O)c3ccccc23)c2ccccc21	> 316 µM	132 µM	
S=C(N/N=C\C=N/NC(=S)N1CCCCC1)N1CCCCC1	> 2 µM	0.363 µM	
COc1c(C)c(C/C=C(\C)CC/C=C(\C)CC/C=C(\C)CCC=C(C)C)c(OC)c2ccccc12	> 200 µM	107 µM	
CCC(Sc1cc(Cl)c(C)cc1S(=O)(=O)Nc1nc(N)nc(N(C)C)n1)C(=O)O (configuration not stated)			inactive
CS(=O)(=O)Nc1ccc2oc(=O)c3ccccc3c2c1	> 200 µM	24 µM	
O=C1Nc2ccc(cc2)Cc2ccc(cc2)NC(=O)N2CCN(CC2)C(=O)Nc2ccc(cc2)Cc2ccc(cc2)NC(=O)N2CCN1CC2	> 10.7 µM	> 10.7 µM	
C(=Nc1ccc(SSc2ccc(N=C=C(c3ccccc3)c3ccccc3)cc2)cc1)=C(c1ccccc1)c1ccccc1	> 200 µM	> 200 µM	
CCOC(=O)N/N=C/C1=NN(C(=O)OCC)S(=O)C1C (configuration not stated)	> 200 µM	> 200 µM	

Structure (SMILES)	EC50	IC50	outcome
Cc1ccsc1C(=O)C(CC(=O)c1cccs1)c1ccsc1 (configuration not stated)			inactive
N#CCCC(CCC#N)(CCC#N)NO	> 200 µM	> 200 µM	
NCCN(CCN)CCN	> 151 µM	> 151 µM	
COc1ccc2c(c1)OCCN(C)OC2c1ccccc1 (configuration not stated)	> 200 µM	> 200 µM	
CCCCCCCCCCOC(=O)NCCC			inactive
Clc1ccc(C2=Nc3ccccc3SC(c3cccs3)C2)cc1 (configuration not stated)	> 7.59 µM	> 7.59 µM	
CCCCCCCCCCO/N=C\c1c2c(O)c3c(O)c(C)c4c(c3c1O)C(=O)C(C)(O/C=C\C(OC)C(C)C(OC(C)=O)C(C)C(O)C(C)C(O)C(C)/C=C\C=C(\C)C(=O)N2)O4 (configuration not stated)	> 200 µM	3.02 µM	
COc1ccc(-n2sc3ncc(C)cc3c2=O)cc1	0.49 µM	10.5 µM	
Nc1cc2[nH]c(=O)c(=O)[nH]c2cc1N	> 200 µM	63.1 µM	
CCOC(=O)C(CC/C=C\c1ccccc1)N1CCC[C@H]1C(=O)OC (some centres not stated)			inactive
COc1ccc(CSc2ccccc2Cn2cccc2)cc1OC			inactive
O=C(c1ccccc1)N1CCc2c([nH]c3ccccc23)C1			inactive
CC1CC(=O)NC2CC1C2(C)C (configuration not stated)	> 1480 µM	> 1480 µM	
Cc1ccc2c(/C=C/c3ccc(N(C)C)cc3)ccc(C(C)C)cc1-2	> 200 µM	151 µM	
O=c1cc(CO)oc2c3c(cc(O)c12)OCC(COC1OC(CO)C(O)C(O)C1O)=CC3 (configuration not stated)	> 550 µM	288 µM	
NC1=NC(=O)C(CC(=O)c2ccc(Cl)cc2)S1 (configuration not stated)	> 200 µM	> 200 µM	
N#CCCN(C(=O)Nc1cccc(C(F)(F)F)c1)C1CCCCC1	> 200 µM	> 200 µM	
CC(C)OP(=O)(OC(C)C)C(=Nc1ccncc1)NNc1ccc([N+](=O)[O-])cc1	> 61.7 µM	> 61.7 µM	
CCOC(=O)C(NC(=O)CC(C)C)(NC(C)C)C(F)(F)F (configuration not stated)	> 200 µM	> 200 µM	
CN1c2ccccc2NP1(=S)Oc1ccccc1 (configuration not stated)	> 93.3 µM	> 93.3 µM	
O=S1(=O)C2C=CCC1C(O)CC2 (configuration not stated)	> 933 µM	> 933 µM	

Structure (SMILES)	EC50	IC50	outcome
c1ccc(C2N=C(c3ccccn3)C(c3ccccn3)=NC2c2ccccc2)cc1 (configuration not stated)	> 9.77 µM	> 9.77 µM	
CC(=O)Nc1ccc(N2C(=O)/C(=C\c3cccc(Oc4ccccc4)c3)S(=O)(=O)C2c2ccccc2)cc1 (configuration not stated)	> 200 µM	26.9 µM	
N#Cc1c(N2CCCC2)nsc1Nc1ccccc1	> 200 µM	> 200 µM	
COc1ccc(C2OC(c3ccncc3)=NN2C)cc1OC (configuration not stated)	> 200 µM	87.1 µM	
Nc1c2c([nH]c(=O)c1N=O)CCC2	> 200 µM	> 200 µM	
CC1=CC(=O)NCCN1C	138 µM	1780 µM	
NC(=O)C(=CNC(=S)Nc1ccc(S(N)(=O)=O)cc1)C(N)=O	> 200 µM	> 200 µM	
O=C(O)CC[C@]1(C(=O)O)NC(C(=O)O)Cc2[nH]cnc21 (some centres not stated)	> 891 µM	> 891 µM	
Clc1ccc(/C(=C\c2ccccc2)Cn2ccnc2)cc1	> 200 µM	16.2 µM	
Nc1ncnc2c1ncn2[C@H]1CC[C@]2(CO)C[C@H]12	> 25.1 µM	> 25.1 µM	
C=C=C(Sc1ccccc1)C(C)(C)O	> 251 µM	158 µM	
CCOC(=O)C(COS(C)(=O)=O)(COS(C)(=O)=O)C(=O)OCC	> 251 µM	209 µM	
CC1CC[C@]2(C(=O)O)CCC3(C)C(=CC(=O)C4[C@@]5(C)CCC(=O)C(C)(C)C5CC[C@]43C)[C@@H]2[C@H]1C (some centres not stated)			inactive
COC(=O)c1c(C)cc(OC(=O)c2c(C)cc(O)c(/C=N\Nc3ccccc3)c2O)c(C)c1O	> 200 µM	9.77 µM	
Cc1nc2ccc3c(ccc4nc(C)c(N=Nc5ccc(C(=N)N)cc5)c(O)c43)c2c(O)c1N=Nc1ccc(C(=N)N)cc1	> 200 µM	11 µM	
CCC[CH2][Sn]([CH2]CCC)([O]C(=O)c1cc(F)cc(F)c1)[O][Sn]([CH2]CCC)([CH2]CCC)[O]C(=O)c1cc(F)cc(F)c1	> 9.12 µM	1.78 µM	
C/C(C=C(C#N)C#N)=C\c1ccccc1	> 97.7 µM	39.8 µM	
CCn1c2ccccc2c(=O)c2c(OC)ccc(OC)c21			inactive
N#CCCN(CCC#N)c1ccc(/C=C(/NC(=O)c2cc([N+](=O)[O-])ccc2Cl)C(=O)NN)cc1	> 10.7 µM	> 10.7 µM	
COc1c(C(=O)/C(=N/Nc2ccccc2)C(C)=O)c(O)c(OC)c2occc12	> 200 µM	38 µM	
CC(=O)NC1C(OCc2ccccc2)OC(CO)C(O)C1OC(C)C(=O)N[C@@H](C)C(=O)N[C@H](CCC(=O)OCCNc1c2ccccc2nc2cccc([N+](=O)[O-])c12)C(N)=O (some centres not stated)	> 0.02 µM	0.000339 µM	
